Results as given in patent US9320276B2, “N-hetarylmethyl pyrazolylcarboxamides” (BAYER INTELLECTUAL PROPERTY GMBH, priority 2010, dated 2016).

Columns and labels:
[1] = system: Blumeria graminis fsp. hordei; experiment: in vivo preventive test on Blumeria graminis (barley); conditions: 500 ppm of active ingredient, evaluated 7 days after inoculation
Method: Solvent: 49 parts by weight of N,N-dimethylacetamide Emulsifier: 1 part by weight of alkylaryl polyglycol ether To produce a suitable preparation of active compound, 1 part by weight of active compound or active compound combination is mixed with the stated amounts of solvent and emulsifier, and the concentrate is diluted with water to the desired concentration. To test for preventive activity, young plants are sprayed with the preparation of active compound or active compound combination at the stated rate of application. After the spray coating has been dried, the plants are dusted with spores of Blumeria graminis fsp. hordei. The plants are placed in the greenhouse at a temperature of approximately 18° C. and a relative atmospheric humidity of approximately 80% to promote the development of mildew pustules. The test is evaluated 7 days after the inoculation. 0% means an efficacy which corresponds to that of the untreated control, while an efficacy of 100% means that no disease is observed.

Leptosphaeria nodorum = experiment: in vivo preventive test on Leptosphaeria nodorum (wheat); conditions: 500 ppm of active ingredient, evaluated 7-9 days after inoculation
Method: Solvent: 49 parts by weight of N,N-dimethylacetamide Emulsifier: 1 part by weight of alkylaryl polyglycol ether To produce a suitable preparation of active compound, 1 part by weight of active compound is mixed with the stated amounts of solvent and emulsifier, and the concentrate is diluted with water to the desired concentration. To test for preventive activity, young plants are sprayed with a preparation of active compound at the stated rate of application. One day after this treatment, the plants are inoculated with an aqueous spore suspension of Leptosphaeria nodorum. The plants remain for 48 hours in an incubation cabinet at 22° C. and a relative atmospheric humidity of 100%. Then the plants are placed in a greenhouse at a temperature of approximately 22° C. and a relative atmospheric humidity of approximately 90%. The test is evaluated 7-9 days after the inoculation. 0% means an efficacy which corresponds to that of the untreated control, while an efficacy of 100% means that no disease is observed.

Uromyces appendiculatus = experiment: in vivo preventive test on Uromyces appendiculatus (beans); conditions: 100 ppm of active ingredient, evaluated 10 days after inoculation
Method: Solvent: 24.5 parts by weight of acetone • 24.5 parts by weight of N,N-dimethylacetamide Emulsifier: 1 part by weight of alkylaryl polyglycol ether To produce a suitable preparation of active compound, 1 part by weight of active compound is mixed with the stated amounts of solvent and emulsifier, and the concentrate is diluted with water to the desired concentration. To test for preventive activity, young plants are sprayed with the preparation of active compound at the stated rate of application. After the spray coating has dried on, the plants are inoculated with an aqueous spore suspension of the causal agent of bean rust (Uromyces appendiculatus) and then remain for 1 day in an incubation cabinet at approximately 20° C. and a relative atmospheric humidity of 100%. The plants are then placed in a greenhouse at approximately 21° C. and a relative atmospheric humidity of approximately 90%. The test is evaluated 10 days after the inoculation. 0% means an efficacy which corresponds to that of the untreated control, while an efficacy of 100% means that no disease is observed.

Botrytis cinerea = experiment: in vivo protective test on Botrytis cinerea (beans); conditions: 100 ppm of active ingredient, preventive, lesion size 2 days after inoculation
Method: Solvent: 24.5 parts by weight of acetone • 24.5 parts by weight of N,N-dimethylacetamide Emulsifier: 1 part by weight of alkylaryl polyglycol ether To produce a suitable preparation of active compound, 1 part by weight of active compound is mixed with the stated amounts of solvent and emulsifier, and the concentrate is diluted with water to the desired concentration. To test for preventive activity, young plants are sprayed with the preparation of active compound. After the spray coating has dried on, 2 small pieces of agar covered with growth of Botrytis cinerea are placed on each leaf. The inoculated plants are placed in a darkened chamber at 20° C. and a relative atmospheric humidity of 100%. 2 days after the inoculation, the size of the lesions on the leaves is evaluated. 0% means an efficacy which corresponds to that of the untreated control, while an efficacy of 100% means that no disease is observed.

Puccinia triticina = experiment: in vivo protective test on Puccinia triticina (wheat); conditions: 500 ppm of active ingredient, preventive, evaluated 8 days after inoculation
Method: Solvent: 49 parts by weight of N,N-dimethylacetamide Emulsifier: 1 part by weight of alkylaryl polyglycol ether To produce a suitable preparation of active compound, 1 part by weight of active compound or active compound combination is mixed with the stated amounts of solvent and emulsifier, and the concentrate is diluted with water to the desired concentration. To test for preventive activity, young plants are sprayed with the preparation of active compound or active compound combination at the stated rate of application. After the spray coating has been dried, the plants are sprayed with a spore suspension of Puccinia triticina. The plants remain for 48 hours in an incubation cabinet at approximately 20° C. and a relative atmospheric humidity of approximately 100%. The plants are placed in the greenhouse at a temperature of approximately 20° C. and a relative atmospheric humidity of approximately 80%. The test is evaluated 8 days after the inoculation. 0% means an efficacy which corresponds to that of the untreated control, while an efficacy of 100% means that no disease is observed.

CC(c1cc2ccccc2o1)N(C(=O)c1c(C(F)F)nn(C)c1F)C1CC1 (racemic) [Example 70]
Efficacy [1]: 80% | Efficacy (Leptosphaeria nodorum): 83% | Efficacy (Uromyces appendiculatus): 100% | Efficacy (Botrytis cinerea): 95%

CC(c1cc2ccccc2s1)N(C(=O)c1c(C(F)F)nn(C)c1F)C1CC1 (racemic) [Example 80]
Efficacy [1]: 86% | Efficacy (Leptosphaeria nodorum): 100% | Efficacy (Puccinia triticina): 100% | Efficacy (Botrytis cinerea): 100%

CC(c1cccc2ccsc12)N(C(=O)c1c(C(F)F)nn(C)c1F)C1CC1 (stereo not shown) [Example 91]
Efficacy [1]: 94% | Efficacy (Leptosphaeria nodorum): 100% | Efficacy (Puccinia triticina): 100%

Cn1nc(C(F)F)c(C(=S)N(Cc2cccc3ccsc23)C2CC2)c1F [Example 95]
Efficacy [1]: 100% | Efficacy (Uromyces appendiculatus): 90% | Efficacy (Puccinia triticina): 83%

CC(c1cc(Cl)sc1Cl)N(C(=O)c1c(C(F)F)nn(C)c1F)C1CC1 (stereo not shown) [Example 128]
Efficacy [1]: 100% | Efficacy (Leptosphaeria nodorum): 100% | Efficacy (Uromyces appendiculatus): 100% | Efficacy (Puccinia triticina): 100% | Efficacy (Botrytis cinerea): 100%

Cc1sc(-c2ccccc2)cc1C(C)N(C(=O)c1c(C(F)F)nn(C)c1F)C1CC1 (stereo not shown) [Example 147]
Efficacy [1]: 70% | Efficacy (Leptosphaeria nodorum): 93% | Efficacy (Uromyces appendiculatus): 83% | Efficacy (Botrytis cinerea): 100%

CC(C)c1nn(-c2ccccc2)c(Cl)c1CN(C(=O)c1c(C(F)F)nn(C)c1F)C1CC1 [Example 169]
Efficacy [1]: 100% | Efficacy (Leptosphaeria nodorum): 100% | Efficacy (Uromyces appendiculatus): 100% | Efficacy (Puccinia triticina): 100% | Efficacy (Botrytis cinerea): 100%
